Assay results: patent US10952436B2, “Microbiocidal quinoline (thio)carboxamide derivatives” (SYNGENTA PARTICIPATIONS AG, priority 2017, dated 2021)
Where two headings read alike, the source gives them in different places.

What was measured:
[1] = tested on: Monographella nivalis (Microdochium nivale); assay: Monographella nivalis (Microdochium nivale)/Liquid Culture (Foot Rot Cereals); format: cell-based; conditions: read-out: control of Monographella nivalis
Sclerotinia sclerotiorum = assay: Sclerotinia sclerotiorum/Liquid Culture (Cottony Rot); conditions: read-out: control of Sclerotinia sclerotiorum
Experimental: Mycelia fragments of a newly grown liquid culture of the fungus are directly mixed into nutrient broth (Vogels broth). After placing a (DMSO) solution of test compound into a microtiter plate (96-well format) the nutrient broth containing the fungal material is added. The test plates are incubated at 24° C. and the inhibition of growth is determined photometrically 3-4 days after application.

Gaeumannomyces graminis = assay: Gaeumannomyces graminis/Liquid Culture (Take-all of Cereals); format: cell-based; conditions: read-out: control of Gaeumannomyces graminis
[2] = tested on: Botryotinia fuckeliana (Botrytis cinerea); assay: Botryotinia fuckeliana (Botrytis cinerea)/Liquid Culture (Gray Mould); format: cell-based; conditions: read-out: control of Botryotinia fuckeliana
Fusarium culmorum [3] = assay: whole plant or invertebrate; format: in vivo; conditions: in Triticum aestivum, read-out: control of Fusarium culmorum
[4] = tested on: Magnaporthe grisea (Pyricularia oryzae); assay: microbe, parasite or virus in culture; format: cell-based; conditions: read-out: control of Magnaporthe grisea
Fusarium culmorum [5] = assay: microbe, parasite or virus in culture; format: cell-based; conditions: read-out: control of Fusarium culmorum
[6] = tested on: Glomerella lagenarium (Colletotrichum lagenarium); assay: Glomerella lagenarium (Colletotrichum lagenarium)/Liquid Culture (Anthracnose); format: cell-based; conditions: Colletotrichum orbiculare, read-out: control of Glomerella lagenarium
[7] = tested on: Magnaporthe grisea (Pyricularia oryzae); assay: whole plant or invertebrate; format: in vivo; conditions: foliar, read-out: control of Magnaporthe grisea
[8] = 200 ppm, liquid culture, compared to untreated control, 4-5 days after application
[9] = 200 ppm, liquid culture, compared to untreated control, 3-4 days after application

Row | SMILES | melting point | inhibition of growth at 200 ppm [1, 8] | inhibition of growth at 20 ppm (Sclerotinia sclerotiorum) | inhibition of growth at 200 ppm (Gaeumannomyces graminis; [8]) | inhibition of growth at 200 ppm [2, 9] | pest or weed control at 200 ppm (Fusarium culmorum [3]) | inhibition of growth at 200 ppm [4] | inhibition of growth at 200 ppm (Fusarium culmorum [5]) | inhibition of growth at 200 ppm [6, 9] | pest or weed control at 200 ppm [7] | inhibition of growth at 200 ppm [1] | inhibition of growth at 200 ppm (Gaeumannomyces graminis) | inhibition of growth at 200 ppm [2] | inhibition of growth at 200 ppm [6]
1 | CC(C)CC(C)(Cc1ccccc1)C(=O)Nc1cnc2c(F)cccc2c1 (centres unmarked) [Compound E-87, 2-benzyl-N-(8-fluoro-3-quinolyl)-2,4-dimethyl-pentanamide] | 140 to 142 °C | ≥ 80% | ≥ 80% | ≥ 80% | ≥ 80% | ≥ 80% | ≥ 80% | ≥ 80% | ≥ 80% | – | – | – | – | –
2 | CC(C)CC(C)(Cc1ccccc1)C(=O)Nc1cnc2ccccc2c1 (centres unmarked) [Compound E-85, 2-benzyl-2,4-dimethyl-N-(3-quinolyl)pentanamide] | 147 to 148 °C | – | – | ≥ 80% | ≥ 80% | – | – | ≥ 80% | ≥ 80% | – | – | – | – | –
3 | CC(Cc1ccccc1)(CC1CC1)C(=O)Nc1cnc2c(F)cccc2c1 (centres unmarked) [Compound E-76, 2-benzyl-3-cyclopropyl-N-(8-fluoro-3-quinolyl)-2-methyl-propanamide] | 157 to 159 °C | ≥ 80% | – | ≥ 80% | ≥ 80% | – | ≥ 80% | ≥ 80% | ≥ 80% | ≥ 80% | – | – | – | –
4 | CC1(CC(C)(Cc2ccccc2)C(=O)Nc2cnc3c(F)cccc3c2)CC1 (centres unmarked) [Compound E-70, 2-benzyl-N-(8-fluoro-3-quinolyl)-2-methyl-3-(1-methylcyclopropyl) propanamide] | 149 to 151 °C | – | – | ≥ 80% | ≥ 80% | – | ≥ 80% | ≥ 80% | ≥ 80% | – | – | – | – | –
5 | C=C(C)CC(C)(Cc1ccccc1)C(=O)Nc1cnc2c(F)cccc2c1 (centres unmarked) [Compound E-74, 2-benzyl-N-(8-fluoro-3-quinolyl)-2,4-dimethyl-pent-4-enamide] | 147 to 149 °C | – | ≥ 80% | – | – | ≥ 80% | ≥ 80% | ≥ 80% | – | – | ≥ 80% | ≥ 80% | ≥ 80% | ≥ 80%
6 | C=C(C)CC(C)(Cc1ccccc1)C(=O)Nc1cnc2c(F)cccc2c1C (centres unmarked) [Compound E-65, 2-benzyl-N-(8-fluoro-4-methyl-3-quinolyl)-2,4-dimethyl-pent-4-enamide] | 105 to 109 °C | ≥ 80% | – | ≥ 80% | ≥ 80% | – | ≥ 80% | ≥ 80% | ≥ 80% | – | – | – | – | –
7 | CCCC(C)(Cc1ccccc1)C(=O)Nc1cnc2c(F)cccc2c1 (centres unmarked) [Compound E-77, 2-benzyl-N-(8-fluoro-3-quinolyl)-2-methyl-pentanamide] | – | ≥ 80% | – | ≥ 80% | ≥ 80% | ≥ 80% | ≥ 80% | ≥ 80% | ≥ 80% | – | – | – | – | –
8 | CC(F)(F)CC(C)(Cc1ccccc1)C(=O)Nc1cnc2c(F)cccc2c1 (centres unmarked) [Compound E-68, 2-benzyl-4,4-difluoro-N-(8-fluoro-3-quinolyl)-2-methyl-pentanamide] | 156 to 158 °C | ≥ 80% | – | ≥ 80% | ≥ 80% | ≥ 80% | ≥ 80% | ≥ 80% | ≥ 80% | – | – | – | – | –
9 | C=C(C)CC(C)(Cc1ccccc1)C(=O)Nc1cc2cccc(F)c2nc1C (centres unmarked) [Compound E-66, 2-benzyl-N-(8-fluoro-2-methyl-3-quinolyl)-2,4-dimethyl-pent-4-enamide] | – | ≥ 80% | – | ≥ 80% | ≥ 80% | ≥ 80% | ≥ 80% | ≥ 80% | ≥ 80% | – | – | – | – | –
10 | O=C(Nc1cnc2c(F)cccc2c1)C(Cc1ccccc1)CC(F)(F)F (centres unmarked) [Compound E-82, 2-benzyl-4,4,4-trifluoro-N-(8-fluoro-3-quinolyl)butanamide] | 161 to 164 °C | ≥ 80% | – | ≥ 80% | ≥ 80% | ≥ 80% | ≥ 80% | ≥ 80% | ≥ 80% | – | – | – | – | –
11 | CC(C)CC(C#N)(Cc1ccccc1)C(=O)Nc1cnc2c(F)cccc2c1 (centres unmarked) [Compound E-83, 2-benzyl-2-cyano-N-(8-fluoro-3-quinolyl)-4-methyl-pentanamide] | – | ≥ 80% | – | ≥ 80% | ≥ 80% | ≥ 80% | ≥ 80% | ≥ 80% | ≥ 80% | – | – | – | – | –
12 | C=C(F)CC(C)(Cc1ccccc1)C(=O)Nc1cnc2c(F)cccc2c1 (centres unmarked) [Compound E-71, 2-benzyl-4-fluoro-N-(8-fluoro-3-quinolyl)-2-methyl-pent-4-enamide] | 132 to 134 °C | ≥ 80% | – | ≥ 80% | ≥ 80% | ≥ 80% | ≥ 80% | ≥ 80% | ≥ 80% | – | – | – | – | –
